The record followed here is patent publication US6521776B2, “Immunological adjuvant compounds compositions and methods of use thereof” (Eisai Company, Limited, priority 2000, dated 2003).

In one test the test system is TNF-α. Kind of test: Induction of cytokines in vitro: TNF-α release in human whole blood (ELISA). Format: cell-based. Particulars: read-out: TNFa Stimulation Value. The procedure: The ability to trigger a stimulatory response in macrophages is likely a necessary characteristic of molecules with imunoadjuvant properties. Therefore, the ability of compounds to stimulate release of TNF-α and other cytokines from immune cells is tested as an indication of their ability to stimulate an immune response, which may result in adjuvant activity.
The most readily available human system to test compound activity on monocytes/macrophages is in whole blood. Various concentrations of compounds of the invention were added as 10×stocks in 50 μl of 5% dextrose followed by 50 μl of 5% dextrose into 400 μl of heparinized whole blood obtained from normal volunteers (18-51 years old; 110-230 lb) into the wells of plastic assay plates, for a total volume of 500 μl/well (final concentration of whole blood was 80%). The 10×stocks were made by dissolving compounds to 1 mM in water and sonicating them for 2 minutes in an ice bath. The compounds were then brought to 10× in 5% dextrose. After a 3-hour incubation with gentle shaking at 37° C. in a 5% CO2 atmosphere, the assay plates were centrifuged at 1000×g for 10 minutes at 4° C. and plasma was drawn off and frozen at −80° C. Plasma samples were analyzed for TNF-α by ELISA (R & D Systems, Minneapolis, Minn.). Each assay point was tested in triplicate.
The stimulatory value is the compound concentration needed to stimulate TNF-α release equal to half the release obtained from the same whole blood sample with 10 ng/ml of LPS.
On the technique in general: ELISA stands for enzyme-linked immunosorbent assay.

In test [1] the test system is tetanus toxoid-specific IgG. More on the design: species or system Balb/c mice. To be noted: mouse, in vivo, sc.

Read-outs that look alike come from different tables or passages of the source.

Regarding `CCCCCCCCCCCCC/C=C/[C@@H](OC(=O)CCCCCCCCCCC)[C@H](COP(=O)(O)OCCNC(=O)NCCOP(=O)(O)OC[C@H](NC(=O)CCCCCCCCCCCCC)[C@@H](/C=C/CCCCCCCCCCCCC)OC(=O)CCCCCCCCCCC)NC(=O)CCCCCCCCCCCCC` (single isomer, unassigned) [ER-805270], the EC50 in the test with TNF-α (compound concentration needed to stimulate TNF-α release equal to half the release obtained with 10 ng/ml LPS, 80% heparinized human whole blood, 3-hour incubation, 37° C.) was more than 10000 nM.

Regarding `CCCCCCCCCCCCCC(=O)N[C@@H](COP(=O)([O-])OCCNC(=O)NCCOP(=O)([O-])OC[C@H](NC(=O)CCCCCCCCCCCCC)[C@H](CCCCCCCCCCC)OC(=O)CCCCCCCCCCC)[C@H](CCCCCCCCCCC)OC(=O)CCCCCCCCCCC.[Na+].[Na+]` [ER-804874], the EC50 in the test on TNF-α (Homo sapiens, 3 h) was 9 nM. The “Mean concentration of tetanus toxoid-specific IgG (6 mice/group)” value (“Mean concentration … (6 mice/group)” for short) in test [1] was determined as 5640 µg/mL.

Consider `CCCCCCCCCCCCC/C=C/[C@@H](OC(=O)CCCCCCCCCCC)[C@H](COP(=O)([O-])OCCNC(=O)NCCOP(=O)([O-])OC[C@H](NC(=O)CCCCCCCCCCCCC)[C@@H](/C=C/CCCCCCCCCCCCC)OC(=O)CCCCCCCCCCC)NC(=O)CCCCCCCCCCCCC.[Na+].[Na+]` [ER-805270], for which the “Mean concentration … (6 mice/group)” value in test [1] is 1995 µg/mL.

Turning to `CCCCCCCCCCCCC(=O)O[C@H](CCOP(=O)([O-])OCCNC(=O)NCCOP(=O)([O-])OCC[C@@H](OC(=O)CCCCCCCCCCCC)C(CCCCCCCCCC)OC(=O)CCCCCCCCCC)C(CCCCCCCCCC)OC(=O)CCCCCCCCCC.[Na+].[Na+]` (stereo partly shown) [ER-805271], the EC50 in the test on TNF-α (Homo sapiens, 3 h) turned out to be 1600 nM. Moreover, the “Mean concentration … (6 mice/group)” value in test [1] amounted to 2010 µg/mL.

As to `CCCCCCCCCCCCC(=O)N[C@@H](CCOP(=O)([O-])OCCNC(=O)NCCOP(=O)([O-])OCC[C@H](NC(=O)CCCCCCCCCCCC)C(CCCCCCCCCC)OC(=O)CCCCCCCCCC)C(CCCCCCCCCC)OC(=O)CCCCCCCCCC.[Na+].[Na+]` (stereo partly shown) [ER-805274], the EC50 in the test on TNF-α (Homo sapiens, 3 h) amounted to 14 nM. Moreover, the “Mean concentration … (6 mice/group)” value in test [1] is 3218 µg/mL.

With `CCCCCCCCCCCCCC(=O)NC(CCCCCCCCC)CC[C@@H](COP(=O)(O)OCCNC(=O)NCCOP(=O)(O)OC[C@H](CCC(CCCCCCCCC)NC(=O)CCCCCCCCCCCCC)OC(=O)CCCCCCCCCCCCC)OC(=O)CCCCCCCCCCCCC` (stereo partly shown) [ER-805328], the EC50 in the test on TNF-α (Homo sapiens, 3 h) is 205 nM.

Regarding `CCCCCCCCCCCCCC(=O)N[C@H](CCCC(CCCCCCCC)OC(=O)CCCCCCCCCCCC)COP(=O)(O)OCCNC(=O)NCCOP(=O)(O)OC[C@@H](CCCC(CCCCCCCC)OC(=O)CCCCCCCCCCCC)NC(=O)CCCCCCCCCCCCC` (stereo partly shown) [ER-805517], the EC50 in the test on TNF-α (Homo sapiens, 3 h) came out at 70 nM.
